Reference: ChEMBL document CHEMBL1909046, “DrugMatrix in vitro pharmacology data”

Legend:
Calcitonin receptor = molecular target: T1, Calcitonin receptor (Homo sapiens, UniProt P30988); format: cell membranes, Membrane; conditions: t47d; note: in other assays of this panel Not Active means under 50% inhibition at 10 µM
T1 sequence (P30988 whole entry): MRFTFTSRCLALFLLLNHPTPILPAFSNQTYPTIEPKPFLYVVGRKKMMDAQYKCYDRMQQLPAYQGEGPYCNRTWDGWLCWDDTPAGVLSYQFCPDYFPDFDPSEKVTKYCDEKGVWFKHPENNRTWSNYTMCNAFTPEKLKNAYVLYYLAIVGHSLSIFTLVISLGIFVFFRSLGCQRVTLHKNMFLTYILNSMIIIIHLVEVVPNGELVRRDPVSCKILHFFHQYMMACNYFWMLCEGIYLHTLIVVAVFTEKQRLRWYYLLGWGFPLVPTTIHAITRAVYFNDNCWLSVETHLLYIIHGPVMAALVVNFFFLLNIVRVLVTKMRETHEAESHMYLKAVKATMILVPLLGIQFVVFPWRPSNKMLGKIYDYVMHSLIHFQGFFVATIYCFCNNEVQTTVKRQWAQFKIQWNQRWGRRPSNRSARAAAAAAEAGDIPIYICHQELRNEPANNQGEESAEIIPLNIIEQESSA

Endothelin-1 receptor = molecular target: T2, Endothelin-1 receptor (Homo sapiens, UniProt P25101); format: cell membranes, Membrane; conditions: cho-k1; note: in other assays of this panel Not Active means under 50% inhibition at 10 µM
T2 sequence (P25101 whole entry): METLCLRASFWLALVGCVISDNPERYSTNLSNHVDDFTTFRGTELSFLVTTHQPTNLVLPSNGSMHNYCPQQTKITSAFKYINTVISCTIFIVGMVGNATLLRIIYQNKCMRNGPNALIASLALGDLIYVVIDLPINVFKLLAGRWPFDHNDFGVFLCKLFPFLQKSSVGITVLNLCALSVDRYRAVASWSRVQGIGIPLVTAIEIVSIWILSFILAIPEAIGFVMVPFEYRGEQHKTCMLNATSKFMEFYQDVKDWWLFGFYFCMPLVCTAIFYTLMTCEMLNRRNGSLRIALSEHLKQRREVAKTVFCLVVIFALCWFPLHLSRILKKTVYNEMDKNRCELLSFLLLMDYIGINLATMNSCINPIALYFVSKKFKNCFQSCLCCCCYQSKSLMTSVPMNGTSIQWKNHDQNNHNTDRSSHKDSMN

[1] = DRUGMATRIX: GABAA, Muscimol, Central radioligand binding (ligand: [3H] Muscimol); format: cell membranes, Rattus norvegicus, Wistar, Brain, Membrane; conditions: Not Active = under 50% inhibition at 10 µM
[2] = molecular target: T3, Angiotensin-converting enzyme (Oryctolagus cuniculus, UniProt P12822); experiment: biochemical; format: tissue-based, Lung;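 note: enzymatic inhibition of angiotensin-converting enzyme measured with FAPGG as the substrate; in other assays of this panel Not Active means under 50% inhibition at 10 µM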
T3 sequence (P12822 whole entry): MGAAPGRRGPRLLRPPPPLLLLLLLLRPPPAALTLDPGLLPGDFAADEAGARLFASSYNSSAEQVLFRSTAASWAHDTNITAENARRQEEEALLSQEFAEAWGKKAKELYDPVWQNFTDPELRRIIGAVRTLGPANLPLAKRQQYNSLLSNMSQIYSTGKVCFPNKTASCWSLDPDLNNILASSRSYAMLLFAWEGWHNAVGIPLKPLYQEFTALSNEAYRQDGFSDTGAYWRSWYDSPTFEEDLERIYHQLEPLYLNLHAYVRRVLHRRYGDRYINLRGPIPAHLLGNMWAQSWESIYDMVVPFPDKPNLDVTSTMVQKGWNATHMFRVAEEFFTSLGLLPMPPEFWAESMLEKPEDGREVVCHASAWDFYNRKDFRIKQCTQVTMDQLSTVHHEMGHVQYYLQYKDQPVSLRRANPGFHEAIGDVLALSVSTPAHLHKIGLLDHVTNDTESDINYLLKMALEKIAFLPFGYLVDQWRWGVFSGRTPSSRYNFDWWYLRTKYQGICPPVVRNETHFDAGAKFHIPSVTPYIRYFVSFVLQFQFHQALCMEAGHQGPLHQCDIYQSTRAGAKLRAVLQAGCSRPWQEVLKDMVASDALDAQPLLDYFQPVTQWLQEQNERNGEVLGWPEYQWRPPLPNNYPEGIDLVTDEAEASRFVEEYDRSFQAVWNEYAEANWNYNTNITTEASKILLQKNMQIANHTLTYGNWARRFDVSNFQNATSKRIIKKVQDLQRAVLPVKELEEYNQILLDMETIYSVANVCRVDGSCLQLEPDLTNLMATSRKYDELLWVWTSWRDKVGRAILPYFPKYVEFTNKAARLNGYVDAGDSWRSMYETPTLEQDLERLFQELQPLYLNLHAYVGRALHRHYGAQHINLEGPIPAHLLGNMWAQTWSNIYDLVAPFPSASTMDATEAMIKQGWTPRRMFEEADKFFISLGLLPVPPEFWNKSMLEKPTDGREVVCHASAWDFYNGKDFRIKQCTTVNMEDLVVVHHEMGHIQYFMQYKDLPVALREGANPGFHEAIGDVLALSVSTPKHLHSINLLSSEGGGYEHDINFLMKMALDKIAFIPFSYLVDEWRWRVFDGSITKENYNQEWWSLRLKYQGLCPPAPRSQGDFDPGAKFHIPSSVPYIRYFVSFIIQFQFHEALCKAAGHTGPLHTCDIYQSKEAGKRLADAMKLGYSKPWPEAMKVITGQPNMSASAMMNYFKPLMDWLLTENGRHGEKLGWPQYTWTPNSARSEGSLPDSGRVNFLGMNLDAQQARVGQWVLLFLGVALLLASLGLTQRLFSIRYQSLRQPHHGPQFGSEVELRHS

Adenosine receptor A1 = molecular target: T4, Adenosine receptor A1 (Homo sapiens, UniProt P30542); format: cell membranes, CHO, Membrane; conditions: cho;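 note: radioligand binding assay at the adenosine A1 receptor, with DPCPX serving as the labelled ligand; in other assays of this panel Not Active means under 50% inhibition at 10 µM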
T4 sequence (P30542 whole entry): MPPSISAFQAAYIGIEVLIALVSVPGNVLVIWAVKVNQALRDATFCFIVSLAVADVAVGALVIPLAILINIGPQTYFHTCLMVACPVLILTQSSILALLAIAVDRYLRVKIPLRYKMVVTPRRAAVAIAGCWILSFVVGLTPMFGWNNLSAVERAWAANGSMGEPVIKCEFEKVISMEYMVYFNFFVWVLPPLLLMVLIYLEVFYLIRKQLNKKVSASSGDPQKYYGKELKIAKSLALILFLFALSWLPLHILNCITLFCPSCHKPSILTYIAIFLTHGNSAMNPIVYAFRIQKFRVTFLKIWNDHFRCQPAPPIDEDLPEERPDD

CCCc1cc(=O)[nH]c(=S)[nH]1 [PROPYLTHIOURACIL]
Not Active: IC50 (Calcitonin receptor) | IC50 (Endothelin-1 receptor) | IC50 [1] | Ki [1] | IC50 [2] | IC50 (Adenosine receptor A1)

COc1ccc(CN(CCN(C)C)c2ccccn2)cc1 [PYRILAMINE]
Not Active: IC50 (Calcitonin receptor) | IC50 (Endothelin-1 receptor) | IC50 [1] | Ki [1] | IC50 [2] | IC50 (Adenosine receptor A1)

CARBOPLATIN
Not Active: IC50 (Calcitonin receptor) | Ki (Calcitonin receptor) | IC50 (Endothelin-1 receptor) | Ki (Endothelin-1 receptor) | IC50 [1] | Ki [1] | IC50 [2] | Ki [2] | IC50 (Adenosine receptor A1) | Ki (Adenosine receptor A1)

CISPLATIN
Not Active: IC50 (Calcitonin receptor) | Ki (Calcitonin receptor) | IC50 (Endothelin-1 receptor) | Ki (Endothelin-1 receptor) | IC50 [1] | Ki [1] | IC50 [2] | Ki [2] | IC50 (Adenosine receptor A1) | Ki (Adenosine receptor A1)

GOLD SODIUM THIOMALATE
Not Active: IC50 (Calcitonin receptor) | Ki (Calcitonin receptor) | IC50 (Endothelin-1 receptor) | Ki (Endothelin-1 receptor) | IC50 [1] | Ki [1] | IC50 [2] | Ki [2] | IC50 (Adenosine receptor A1) | Ki (Adenosine receptor A1)

OXALIPLATIN
Not Active: IC50 (Calcitonin receptor) | Ki (Calcitonin receptor) | IC50 (Endothelin-1 receptor) | Ki (Endothelin-1 receptor) | IC50 [1] | Ki [1] | IC50 [2] | Ki [2] | IC50 (Adenosine receptor A1) | Ki (Adenosine receptor A1)
